Data: patent publication US11433068B2, “Treatment of cancers having alterations within the SWI/SNF chromatin remodeling complex” (THE GENERAL HOSPITAL CORPORATION, priority 2016, dated 2022)

Experiments:
[1] = test system: ARID-deficient LOX-IMVI cell line; assay: Combination therapy heatmaps, cell viability, endogenous ARID-deficient melanoma lines (FIG. 9); format: cell-based; conditions: G9a inhibitor in combination with HDAC inhibitor SAHA; LOX-IMVI compared to ARID wildtype A375
Text: FIG. 9 summarizes the combination therapy on endogenous ARID-deficient melanoma cell lines.

[2] = test system: H3K9; assay: Histone western blot of cells treated with G9a inhibitors (FIGS. 6A, 6B); format: cell-based; conditions: UACC257 cell line
Text: (§1) The G9a and EZH2 methyltransferases are known to target H3K9 and H3K27, respectively.

[3] = test system: ARID2-deficient cells; assay: Selective susceptibility of ARID2-knockdown melanoma lines to G9a inhibitors (FIG. 3); format: cell-based; conditions: ARID2-knockdown of two different melanoma lines
[4] = test system: ARID2-deficient cell lines; assay: Combination therapy heatmaps, cell viability, isogenically matched engineered melanoma lines (FIG. 8); format: cell-based; conditions: ARID2-deficient vs matched lines
Text: FIG. 8 summarizes the combination therapy on isogenically matched engineered ARID-deficient melanoma cell lines. Heatmaps showing cell viability after treatment with the G9a inhibitor BIX-01294 in combination with other small molecule inhibitors (bromodomain inhibitor JQ1 and BRAF inhibitor PLX).

[5] = test system: melanoma cell lines (n=22); assay: LD50 of melanoma cell lines versus ARID2 mutational status (FIGS. 5A, 5B); format: cell-based; conditions: 22 melanoma cell lines; ARID2 mutant vs other lines
Text: LD50 value of each melanoma cell line plotted for the two G9a inhibitors UNC0638 and BIX-01294. (n=22). ARID2 mutant cell lines indicated in closed circles.

[6] = test system: melanoma cell and melanocyte; assay: Viability by cell-titer Glo assay (FIGS. 14A, 14B); format: cell-based; conditions: varying amounts; melanoma cells and melanocytes
Procedure: FIGS. 14A and 14B show melanoma cell and melanocyte are sensitive to G9a inhibitors. Indicated cell types were treated with varying amounts of (FIG. 14A) UNC0638 or (FIG. 14B) BIX01294 and viability was measured by cell-titer Glo assay.

[7] = test system: ARID2-deficient melanomas UACC62 cells; assay: Quantification of cell number using crystal violet staining (FIGS. 4A, 4B); format: cell-based
[8] = test system: H3K27; assay: Histone western blot of cells treated with EZH2 inhibitors (FIGS. 6A, 6B); format: cell-based; conditions: UACC257 cell line
Text: as §1

[9] = test system: UACC257 human melanoma cells with ARID2 deficiency; assay: Dose response of melanoma cells to the G9a inhibitor (FIG. 2); format: cell-based; conditions: UACC257 shARID2 knockdown vs isogenically matched control (shLuc) cells
Procedure: ARID2 deficiency is simulated the cells using an RNAi shARID2 to knockdown expression of ARID2. For control, the same cell lines are treated with a control RNAi shLuc instead of shARID2.

[10] = test system: G9a-amplified melanoma cell line, K029; assay: Tumor growth of subcutaneously inoculated K029 cells in SCID mice (FIG. 16); format: in vivo; conditions: K029 subcutaneous in SCID mice; 2.5 mg/kg daily ip from 8 days after inoculation
Procedure: G9a-amplified melanoma cell line, K029, was subcutaneously inoculated on SCID mice (5×10^6 cells/[…] PBS). Vehicle (10% DMSO/PBS) or UNC0642 (2.5 mg/kg) was daily administrated by ip injection 8 days after K029 inoculation.

[11] = BIX-01294 in combination with bromodomain inhibitor JQ1

| Structure (SMILES) | drug synergy (cell viability) [1] | methylation marks at H3K9 (histone western blot) [2] | sensitivity of ARID2-knockdown cells to G9a inhibitors [3] | drug synergy (cell viability) [4, 11] | sensitivity (LD50) versus ARID2 mutation [5] | viability (cell-titer Glo) [6] | cell number (crystal violet staining) [7] | further results |
| --- | --- | --- | --- | --- | --- | --- | --- | --- |
| COc1cc2nc(N3CCCN(C)CC3)nc(NC3CCN(Cc4ccccc4)CC3)c2cc1OC [BIX-01294] | selectively enhanced | selective and specific decrease in the methylation marks | sensitive | selectively enhanced | ARID2 mutation predicts the sensitivity | sensitive | selective vulnerability | drug synergy (cell viability) ([4]; BIX-01294 in combination with BRAF inhibitor PLX): selectively enhanced |
| CC[C@H](C)n1cc(C)c2c(C(=O)NCc3c(C)cc(C)[nH]c3=O)cc(-c3ccc(N4CCNCC4)nc3)cc21 [GSK126] |  |  |  |  |  |  |  | methylation marks at H3K27 (histone western blot) [8]: selective and specific decrease in the methylation marks |
| Cc1sc2c(c1C)C(c1ccc(Cl)cc1)=N[C@@H](CC(=O)OC(C)(C)C)c1nnc(C)n1-2 [JQ1] |  |  |  | selectively enhanced |  |  |  |  |
| O=C(CCCCCCC(=O)Nc1ccccc1)NO [SAHA, suberoylanilide hydroxamic acid] | selectively enhanced |  |  |  |  |  |  |  |
| COc1cc2c(NC3CCN(C(C)C)CC3)nc(C3CCCCC3)nc2cc1OCCCN1CCCC1 [UNC0638] | selectively enhanced | selective and specific decrease in the methylation marks | sensitive |  | ARID2 mutation predicts the sensitivity | sensitive | selective vulnerability | susceptibility to the G9a inhibitor (dose response) [9]: more susceptible |
| COc1cc2c(NC3CCN(C(C)C)CC3)nc(N3CCC(F)(F)CC3)nc2cc1OCCCN1CCCC1 [UNC0642] |  |  |  |  |  |  |  | tumor growth [10]: effectively suppress tumor growth |
